# Source: patent publication US20090082322A1, “Gender Differences in Experimental Aortic Aneurysm Formation” (THE REGENTS OF THE UNIVERSITY OF MICHIGAN, priority 2004, published 2009)
# Tested on: MMP-9
# Experiment: Aortic MMP-9 immunohistochemistry, ED-1 colocalization and quantitative PCR
# Format: in vivo, Sprague-Dawley rats
# From the text: In other experiments, male rats were randomized to implantation of an estrogen pellet or sham implantation (n=13, each). The former involved the subcutaneous implantation of a 21-day slow-release 0.1-mg 17-β-estradiol pellet (Innovative Research of America, Sarasota, Fla.) in the posterior neck. Sham rats underwent the same implantation procedure without insertion of any pellet. This particular estradiol dose results in serum estradiol levels at 2 to 3 weeks of 44.7±6.1 pg/mL compared with 15.0±2.2 pg/mL in control rats (P<0.05). Rat aortas from both groups were subjected to elastase perfusion 5 days later. The aortas were then removed for study 7 or 14 days after elastase perfusion.
# Immunohistochemistry was undertaken after deparaffinization, rehydration, and unmasking using Trilogy (Cell Marque Corp, Hot Springs, Ariz.) in a Princess model pressure cooker (Cell Marque). Endogenous peroxidase activity was then blocked using 3% hydrogen peroxide in methanol. To help ensure that rejection was not occurring in elastase-perfused or transplanted animals, anti-T lymphocyte immunohistochemistry was performed. Specifically, antirat CD3 monoclonal antibody (BD Pharmingen, San Diego, Calif.) was used as the primary antibody and mouse IgG Vectastain (Vector Laboratories, Burlingame, Calif.) as the secondary antibody. Rat spleen was used as the positive control for anti-CD3 staining. […]
# Expression of MMP-9 and β-actin mRNA was determined using quantitative PCR. […] The resultant cDNA was amplified by Taq Polymerase (Promega, Madison, Wis.) in a SmartCycler quantitative PCR system (Cepheid, Sunnyvale, Calif.). […]
# MMP-9 forward primer, CGCCAACTATGACCAGGATA (SEQ ID NO: 1); MMP-9 reverse primer, GTT GCC CCC AGT TAC AGT (SEQ ID NO: 2); β-actin forward primer, ATGGGTCAGAAGGATTCCTATGTG (SEQ ID NO: 3); β-actin reverse primer, CTTCATGAGGTAGTCAGTCAGGTC (SEQ ID NO: 4). […] Quantification of mRNA levels used ΔCt values, calculated by the formula: […]
# Expression of the target gene in ratio to β-actin expression was calculated by the formula: […]
structure (smiles),measurement,setting,value
C[C@]12CC[C@@H]3c4ccc(O)cc4CC[C@H]3[C@@H]1CC[C@@H]2O [17-β-estradiol],aortic MMP-9 staining,"immunohistochemistry, estradiol treated rats compared with sham rats",less evident
same,aortic MMP-9 mRNA expression,"quantitative PCR normalized to β-actin, 7 days after elastase perfusion, sham 0.12±0.04, P=0.11",0.0017±0.004 mRNA copies
same,colocalization of aortic ED-1 and MMP-9,rats treated with estradiol compared with sham rats,less prominently stained cells
